Laboratory results taken from patent US20150284380A1, “NOVEL HETEROCYCLIC COMPOUNDS AS PEST CONTROL AGENTS” (BAYER CROPSCIENCE AG, priority 2012, published 2015).
Like-named read-outs stand apart in the source and are kept apart here.

Experiments:
[1] = logP by HPLC-MS (HCOOH or neutral)
[2] = test system: green peach aphid (Myzus persicae); assay: Myzus persicae spray test; format: in vivo; settings: foliar, 144 h, read-out: efficacy in % (aphids killed)
Method: Myzus persicae—Spray Test
Solvent: 78 parts by weight of acetone • • 1.5 parts by weight of dimethylformamide
Emulsifier: 0.5 parts by weight of alkylaryl polyglycol ether
To produce a suitable active compound formulation, 1 part by weight of active compound is mixed with the stated amounts of solvent and emulsifier, and the concentrate is diluted with emulsifier-containing water to the desired concentration.
Discs of Chinese cabbage leaves (Brassica pekinensis) infested by all stages of the green peach aphid (Myzus persicae) are sprayed with an active compound formulation of the desired concentration.
After 6 days, the efficacy in % is determined. 100% means that all the aphids have been killed; 0% means that none of the aphids have been killed.

[3] = HCOOH (formic acid), logP (HCOOH), HPLC-MS, HCOOH
[4] = application rate 500 g/ha, spray on infested Chinese cabbage leaf discs, after 6 days
[5] = logP (neutral), HPLC-MS, neutral

Structure (SMILES) | chromatographic logP [1, 3] | pest or weed control at 500 g/ha [2, 4] [%] | other results
c1cnc(-c2cccc(-c3cnc(-c4cncs4)s3)n2)nc1 [Example 1, 5-[6-(Pyrimidin-2-yl)pyridin-2-yl]-2,5′-bi-1,3-thiazole] | 1.76 | 80 | logP (HCOOH) ([1]; HPLC-MS, HCOOH): 1.74
c1cnc(-c2cccc(-c3cnn(-c4cnsc4)c3)n2)nc1 [Example 2, 2-{6-[1-(isothiazol-4-yl)-1H-pyrazol-4-yl]pyridin-2-yl}pyrimidine] | 1.65 |  | chromatographic logP [1, 5]: 1.64
c1cnc(-c2cccc(-c3cnc(-c4ccnnc4)s3)n2)nc1 [Example 3, 4-{5-[6-(Pyrimidin-2-yl)pyridin-2-yl]-1,3-thiazol-2-yl}pyridazine] | 1.37 | 90 | chromatographic logP ([1]; neutral, logP (neutral), HPLC-MS): 1.4
CS(=O)(=O)NC(=O)c1cccc(-c2cnc(-c3ccnnc3)s2)n1 [Example 4] | 1.36 | 100 | 
c1cnc(-c2cccc(-c3cnn(-c4ccnnc4)c3)n2)nc1 [Example 5] | 1.23 | 90 | 
c1cnc(-c2cccc(-c3cnn(-c4cnccn4)c3)n2)nc1 [Example 6] | 1.65 | 100 | 
Cn1cc(-n2cc(-c3cccc(-c4ncccn4)n3)cn2)cn1 [Example 7] | 1.37 | 100 | 
Cn1cc(-c2ncc(-c3cccc(-c4ncccn4)n3)s2)cn1 [Example 8, 2-{6-[2-(1-Methyl-1H-pyrazol-4-yl)-1,3-thiazol-5-yl]pyridin-2-yl}pyrimidine] |  | 100 | chromatographic logP [1, 5]: 1.56
c1cnc(-c2cccc(-c3cnc(-c4cn[nH]c4)s3)n2)nc1 [Example 9, 2-{6-[2-(1H-Pyrazol-4-yl)-1,3-thiazol-5-yl]pyridin-2-yl}pyrimidine] |  |  | chromatographic logP [1]: 1.35; pest or weed control at 500 g/ha ([2]; in Brassica rapa): 90%
c1cnc(-c2cccc(-c3cnc(-c4cnsc4)s3)n2)nc1 [Example 10] | 1.91 |  | 
FC(F)(F)c1cccc(-c2cnc(-c3cnsc3)s2)n1 [Example 11] | 3.13 | 90 | 
CS(=O)(=O)NC(=O)c1cccc(-c2cnc(-c3cnsc3)s2)n1 [Example 12] | 1.9 | 90 | 
